PubChem BioAssay (NCI)
Values joined by “and” are separate entries in the source; they are usually repeats but may differ in a detail not shown here. Identical values can stand only once.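 In this assay, cells in 96-well plates receive the compound at five concentrations for 48 hours. Endpoints are linearly interpolated between the surrounding concentrations. GI50 marks 50% less growth. TGI marks complete inhibition of growth.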

Key:
Test in all cases: NCI anticancer screen, dose series, 48 h
UACC-62 melanoma = tested on: UACC-62 melanoma
SK-OV-3 ovarian = tested on: SK-OV-3 ovarian
U251 CNS = tested on: U251 CNS
OVCAR-3 ovarian = tested on: OVCAR-3 ovarian
A549 NSCLC = tested on: A549 NSCLC
SNB-19 CNS = tested on: SNB-19 CNS
TK-10 renal = tested on: TK-10 renal
MOLT-4 leukemia = tested on: MOLT-4 leukemia
SF-295 CNS = tested on: SF-295 CNS
UACC-257 melanoma = tested on: UACC-257 melanoma
MALME-3M melanoma = tested on: MALME-3M melanoma
HCT-15 colon = tested on: HCT-15 colon
K-562 leukemia = tested on: K-562 leukemia
MDA-MB-231 breast = tested on: MDA-MB-231 breast
LOX IMVI melanoma = tested on: LOX IMVI melanoma
786-0 renal = tested on: 786-0 renal
CCRF-CEM leukemia = tested on: CCRF-CEM leukemia
PC-3 prostate = tested on: PC-3 prostate
CAKI-1 renal = tested on: CAKI-1 renal
OVCAR-4 ovarian = tested on: OVCAR-4 ovarian
HCT-116 colon = tested on: HCT-116 colon
T-47D breast = tested on: T-47D breast
KM12 colon = tested on: KM12 colon
HOP-92 NSCLC = tested on: HOP-92 NSCLC
MCF7 breast = tested on: MCF7 breast
SR leukemia = tested on: SR leukemia
NCI-H226 lung = tested on: NCI-H226 lung
HL-60(TB) leukemia = tested on: HL-60(TB) leukemia
SF-268 CNS = tested on: SF-268 CNS
SNB-75 CNS = tested on: SNB-75 CNS
BT-549 breast = tested on: BT-549 breast
OVCAR-5 ovarian = tested on: OVCAR-5 ovarian
SN12C renal = tested on: SN12C renal
OVCAR-8 ovarian = tested on: OVCAR-8 ovarian
SK-MEL-5 melanoma = tested on: SK-MEL-5 melanoma
HT29 colon = tested on: HT29 colon
SW-620 colon = tested on: SW-620 colon
HOP-62 NSCLC = tested on: HOP-62 NSCLC
MDA-MB-435 = tested on: MDA-MB-435
COLO 205 colon = tested on: COLO 205 colon
UO-31 renal = tested on: UO-31 renal
NCI-H460 lung = tested on: NCI-H460 lung
ACHN renal = tested on: ACHN renal
EKVX NSCLC = tested on: EKVX NSCLC
A498 renal = tested on: A498 renal
SK-MEL-28 melanoma = tested on: SK-MEL-28 melanoma
NCI-H522 lung = tested on: NCI-H522 lung
NCI/ADR-RES ovarian = tested on: NCI/ADR-RES ovarian
IGROV1 ovarian = tested on: IGROV1 ovarian
SK-MEL-2 melanoma = tested on: SK-MEL-2 melanoma
RPMI-8226 leukemia = tested on: RPMI-8226 leukemia
NCI-H23 lung = tested on: NCI-H23 lung
RXF 393 renal = tested on: RXF 393 renal
HCC-2998 colon = tested on: HCC-2998 colon
HS 578T breast = tested on: HS 578T breast
M14 melanoma = tested on: M14 melanoma
DU-145 prostate = tested on: DU-145 prostate
SF-539 CNS = tested on: SF-539 CNS

CC(C)Nc1cc(-c2c[nH]c(C(=O)N[C@H](CO)c3cccc(Cl)c3)c2)c(Cl)cn1
GI50 (UACC-62 melanoma): 0.0826 µM and 0.13 µM
TGI (UACC-62 melanoma): 12.3 µM and > 10 µM
GI50 (SK-OV-3 ovarian): 3.23 µM and > 7.67 µM
TGI (SK-OV-3 ovarian): 18 µM and > 10 µM
GI50 (U251 CNS): 1.71 µM and 1.09 µM
TGI (U251 CNS): 18 µM and > 10 µM
GI50 (OVCAR-3 ovarian): 4.66 µM and > 9.46 µM
TGI (OVCAR-3 ovarian): 18.8 µM and > 10 µM
GI50 (A549 NSCLC): 2.33 µM and 0.919 µM
TGI (A549 NSCLC): 20.3 µM and > 10 µM
GI50 (SNB-19 CNS): 4.84 µM
TGI (SNB-19 CNS): 20.6 µM and > 10 µM
GI50 (TK-10 renal): 0.795 µM and 0.36 µM
TGI (TK-10 renal): 18.6 µM and > 10 µM
GI50 (MOLT-4 leukemia): 2.55 µM and 2.57 µM
TGI (MOLT-4 leukemia): 19.6 µM and > 10 µM
GI50 (SF-295 CNS): 4.22 µM and > 8.07 µM
TGI (SF-295 CNS): 18.1 µM and > 10 µM
GI50 (UACC-257 melanoma): 0.0732 µM
TGI (UACC-257 melanoma): 0.519 µM
GI50 (MALME-3M melanoma): 0.0249 µM and 0.0475 µM
TGI (MALME-3M melanoma): 0.149 µM
GI50 (HCT-15 colon): 2.89 µM and 2.68 µM
TGI (HCT-15 colon): 14.4 µM and > 10 µM
GI50 (K-562 leukemia): 3.35 µM
TGI (K-562 leukemia): > 10 µM
GI50 (MDA-MB-231 breast): 1.67 µM and 1.02 µM
TGI (MDA-MB-231 breast): 13.6 µM and > 8.38 µM
GI50 (LOX IMVI melanoma): 0.157 µM and 0.316 µM
TGI (LOX IMVI melanoma): 12.8 µM and > 10 µM
GI50 (786-0 renal): 2.85 µM and 3.23 µM
TGI (786-0 renal): 18.3 µM and > 10 µM
GI50 (CCRF-CEM leukemia): 4.09 µM and 4.7 µM
TGI (CCRF-CEM leukemia): > 100 µM
GI50 (PC-3 prostate): 3.96 µM and > 5.54 µM
TGI (PC-3 prostate): 18.4 µM and > 10 µM
GI50 (CAKI-1 renal): 1.17 µM and 1.87 µM
TGI (CAKI-1 renal): 19.1 µM and > 10 µM
GI50 (OVCAR-4 ovarian): 3.68 µM and > 6.63 µM
TGI (OVCAR-4 ovarian): 20.7 µM and > 10 µM
GI50 (HCT-116 colon): 0.154 µM and 0.162 µM
TGI (HCT-116 colon): 11.4 µM and > 10 µM
GI50 (T-47D breast): 1.77 µM and > 5.23 µM
TGI (T-47D breast): 16.8 µM and > 10 µM
GI50 (KM12 colon): 0.751 µM and 0.444 µM
TGI (KM12 colon): 15.5 µM and > 10 µM
GI50 (HOP-92 NSCLC): 0.312 µM and 0.233 µM
TGI (HOP-92 NSCLC): 2.84 µM and 1.81 µM
GI50 (MCF7 breast): 2.16 µM and 1.62 µM
TGI (MCF7 breast): 19.1 µM and > 10 µM
GI50 (SR leukemia): 3.38 µM and 3.66 µM
TGI (SR leukemia): 40.5 µM and > 10 µM
GI50 (NCI-H226 lung): 3.17 µM and > 3.67 µM
TGI (NCI-H226 lung): 24.2 µM and > 10 µM
GI50 (HL-60(TB) leukemia): 0.378 µM and 0.272 µM
TGI (HL-60(TB) leukemia): 4.67 µM and > 10 µM
GI50 (SF-268 CNS): 4.46 µM and > 7.71 µM
TGI (SF-268 CNS): 24.5 µM and > 10 µM
GI50 (SNB-75 CNS): 4.5 µM and > 5.45 µM
TGI (SNB-75 CNS): 19.8 µM and > 10 µM
GI50 (BT-549 breast): 3.19 µM and > 5.25 µM
TGI (BT-549 breast): 15.7 µM and > 10 µM
GI50 (OVCAR-5 ovarian): 0.259 µM and 0.187 µM
TGI (OVCAR-5 ovarian): 16.2 µM and > 10 µM
GI50 (SN12C renal): 4.04 µM and > 4.03 µM
TGI (SN12C renal): 20.9 µM and > 10 µM
GI50 (OVCAR-8 ovarian): 7.75 µM and 8.82 µM
TGI (OVCAR-8 ovarian): 24.3 µM and > 10 µM
GI50 (SK-MEL-5 melanoma): 0.64 µM and 0.752 µM
TGI (SK-MEL-5 melanoma): 7.82 µM and 9.83 µM
GI50 (HT29 colon): 0.0894 µM and 0.0951 µM
TGI (HT29 colon): 11.6 µM and > 10 µM
GI50 (SW-620 colon): 0.249 µM and 0.296 µM
TGI (SW-620 colon): 16.7 µM and > 10 µM
GI50 (HOP-62 NSCLC): 3.93 µM and 0.479 µM
TGI (HOP-62 NSCLC): 26.4 µM and > 10 µM
GI50 (MDA-MB-435): 0.312 µM and 0.335 µM
TGI (MDA-MB-435): 14.9 µM and > 10 µM
GI50 (COLO 205 colon): 0.104 µM and 0.076 µM
TGI (COLO 205 colon): 3.06 µM and 1.59 µM
GI50 (UO-31 renal): 0.986 µM and 0.838 µM
TGI (UO-31 renal): 14.5 µM and > 10 µM
GI50 (NCI-H460 lung): 1.35 µM and 1.05 µM
TGI (NCI-H460 lung): 15.8 µM and > 10 µM
GI50 (ACHN renal): 2.24 µM and 2.08 µM
TGI (ACHN renal): 14.9 µM and > 10 µM
GI50 (EKVX NSCLC): 1.97 µM and 0.783 µM
TGI (EKVX NSCLC): 15.4 µM and > 10 µM
GI50 (A498 renal): 0.084 µM and 0.255 µM
TGI (A498 renal): 1.41 µM and 1.95 µM
GI50 (SK-MEL-28 melanoma): 0.126 µM and 0.0718 µM
GI50 (NCI-H522 lung): 2.33 µM and 2.35 µM
TGI (NCI-H522 lung): 19.8 µM and > 10 µM
GI50 (NCI/ADR-RES ovarian): 5.57 µM and > 7.85 µM
TGI (NCI/ADR-RES ovarian): 24.4 µM and > 10 µM
GI50 (IGROV1 ovarian): 0.516 µM and 0.366 µM
TGI (IGROV1 ovarian): 20.5 µM and > 10 µM
GI50 (SK-MEL-2 melanoma): 0.18 µM and 0.179 µM
TGI (SK-MEL-2 melanoma): 0.75 µM and 1.41 µM
GI50 (RPMI-8226 leukemia): 3.09 µM and 1.14 µM
TGI (RPMI-8226 leukemia): 45.9 µM and > 10 µM
GI50 (NCI-H23 lung): 0.308 µM and 0.258 µM
TGI (NCI-H23 lung): 16 µM and > 10 µM
GI50 (RXF 393 renal): 2.14 µM and 1.06 µM
TGI (RXF 393 renal): 15 µM and > 10 µM
GI50 (HCC-2998 colon): 0.19 µM and 0.209 µM
TGI (HCC-2998 colon): 13.8 µM and > 10 µM
GI50 (HS 578T breast): 4.32 µM and > 9.06 µM
TGI (HS 578T breast): 60.5 µM and > 10 µM
GI50 (M14 melanoma): 0.101 µM
TGI (M14 melanoma): > 2.58 µM
GI50 (DU-145 prostate): 5.96 µM and 9.49 µM
TGI (DU-145 prostate): 20.4 µM and > 10 µM
GI50 (SF-539 CNS): 6.04 µM
TGI (SF-539 CNS): 20.2 µM and > 10 µM
